The values below come from paper PMC6742966, “The Synergism of the Small Molecule ENOblock and Fluconazole Against Fluconazole-Resistant Candida albicans” (Frontiers in Microbiology, 2019).

The term Kd denotes the constant that tells how readily two partners part at equilibrium. The low end stands for a tighter complex, the high end for a looser complex.

In this assay the target is T1, C. albicans enolase 1 (rCaEno1) (Candida albicans, UniProt P30575).
T1 construct: gene ENO1; full-length, C-terminal His6 tag
In words: SPR (Biacore T200, immobilized rCaEno1, steady-state affinity); also inhibits transglutaminase activity of purified rCaEno1, IC50 about […], with no significant effect on enolase activity. In kind it is binding. For orientation: Surface plasmon resonance follows binding to a sensor surface in real time, without labels.

T1 sequence (P30575 whole entry): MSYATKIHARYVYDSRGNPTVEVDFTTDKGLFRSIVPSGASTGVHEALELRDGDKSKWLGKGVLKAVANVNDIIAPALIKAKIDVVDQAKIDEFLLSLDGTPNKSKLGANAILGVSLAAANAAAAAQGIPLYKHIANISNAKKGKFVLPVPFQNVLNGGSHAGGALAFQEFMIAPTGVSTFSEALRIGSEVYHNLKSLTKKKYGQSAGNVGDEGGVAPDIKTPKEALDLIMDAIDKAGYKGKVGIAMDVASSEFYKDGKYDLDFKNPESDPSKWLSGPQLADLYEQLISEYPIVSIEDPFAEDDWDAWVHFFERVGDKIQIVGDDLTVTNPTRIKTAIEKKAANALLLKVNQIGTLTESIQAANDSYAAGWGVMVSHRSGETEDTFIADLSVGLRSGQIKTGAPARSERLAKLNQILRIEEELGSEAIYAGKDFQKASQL

`NCCOCCOCCNC(=O)Cc1ccc(Nc2nc(NCc3ccc(F)cc3)nc(NCC3CCCCC3)n2)cc1` [ENOblock] displayed an equilibrium dissociation constant (Kd) of around 0.3 µM.
